In patent US7807625B2, “Anti-wrinkle composition” (Grant Industries, Inc, priority 2006, dated 2010):

Test system: type I collagen, normal human dermal fibroblasts
Assay: Collagen assay: type I collagen by sandwich ELISA in fibroblast culture-conditioned medium
Format: cell-based
Conditions: 4 days, LbGp 1.25 mg/ml and/or palmitoyl hexapeptide-6 0.20 mg/ml
Protocol: Normal human dermal fibroblasts (Cambrex, Walkersville, Md.) were seeded into a 96-well plate and grown to confluence. They were then challenged with several concentrations of the test samples for 4 days. The fibroblast culture-conditioned medium was harvested and tested for type I collagen by sandwich ELISA using affinity-purified antibodies. Magnesium ascorbyl phosphate (MAP) was tested along with the sample as a positive control.

## palmitoyl hexapeptide-6 [Hydrophobic peptide alone]
  Type I collagen Assay: 420
